# Patent US4835168A, “Thiadiazole antiviral agents” (Eli Lilly and Company, priority 1988, dated 1989)
# “Also recorded” adds a separate entry of the source. Structures can show the parent of a compound that is named as a salt. Where two headings read alike, the source gives them in different places.
# Assays:
# [1] = tested on: influenza A1-Ann Arbor strain; experiment: in vivo mouse influenza test, survival index, relative activity (Table I); details: CD-1 mice, 10 days
# influenza A-NWS = experiment: plaque-reduction study in MDCK cells (Table III); assay type: cell-based; details: values marked *: one discordant test >50 not incorporated; for IC50: MDCK, read-out: IC50, inhibition of plaque formation by 50 percent
# influenza B-Great Lake [2] = experiment: plaque-reduction study in MDCK cells (Table III); assay type: cell-based; details: for IC50: MDCK, read-out: IC50, inhibition of plaque formation by 50 percent
# Vaccinia = experiment: microbe, parasite or virus in culture; assay type: cell-based; details: Orthopoxvirus vaccinia, read-out: IC50, inhibition of plaque formation by 50 percent
# HSV I = experiment: in vivo antiviral test in mouse (Table IV); details: drinking water, more survivors than control
# Procedure: (§1) As previously mentioned, in vivo antiviral test results may vary due to numerous factors. […] The compounds of Examples 1 and 7 were tested against several different viruses using different kinds of test animals and different modes of oral and topical administration. In Table IV below, Column 1 indicated the test compound, while Column 2 discloses the virus the compound was employed against. Columns 3 and 4 describe the test animal and the method of administration, respectively. Finally, Column 5 discloses whether or not antiviral activity was shown.
# Semliki Forest = experiment: plaque-reduction test (Table V); assay type: cell-based; details: BSCl cells, read-out: IC50, inhibition of plaque formation by 50 percent
# influenza Al-Ann Arbor [3] = experiment: plaque-reduction study in MDCK cells (Table III); assay type: cell-based; details: for IC50: MDCK, read-out: IC50, inhibition of plaque formation by 50 percent
# Parainfluenza (type 3) = experiment: plaque-reduction test (Table V); assay type: cell-based; details: read-out: IC50, inhibition of plaque formation by 50 percent
# RSV = experiment: in vivo antiviral test in hamster (Table IV); details: reduction in nasal washing virus titer vs control
# Procedure: as §1
# [4] = in vivo conversion to salt form of the compound of Example 6
# Herpes I = experiment: plaque-reduction test (Table V); assay type: cell-based; details: BSCl cells, read-out: IC50, inhibition of plaque formation by 50 percent
# [5] = Malinoski et al., Virology 1981; cited from earlier work
# HIV = experiment: preliminary testing against retroviruses
# HSV II = experiment: in vivo antiviral test in guinea pig (Table IV); details: topical cream, fewer lesions than control
# Procedure: as §1
# Friend Leukemia = experiment: preliminary testing against retroviruses
# [6] = tested on: Vesicular Stomatitus Virus; experiment: in vitro activity against Vesicular Stomatitus Virus; assay type: cell-based
# Herpes II = experiment: plaque-reduction test (Table V); assay type: cell-based; details: BSCl cells, read-out: IC50, inhibition of plaque formation by 50 percent
# influenza B-Maryland = experiment: survival of infected mice, oral in diet (Table II); assay type: in vivo; details: control 14/50
# Excerpt: (§2) Again, due to the nature of in vivo antiviral tests the in vivo antiviral influenza activity of the compounds can vary. […] A typical test would run for at least ten days.
# influenza B-Taiwan = experiment: survival of infected mice, oral in diet (Table II); assay type: in vivo; details: control 1/36
# Excerpt: as §2
# influenza B-Hong Kong = experiment: survival of infected mice, oral in diet (Table II); assay type: in vivo; details: control 4/50
# Excerpt: as §2
# influenza A-Brazil = experiment: survival of infected mice, oral in diet (Table II); assay type: in vivo; details: control 10/28
# Excerpt: as §2
# influenza B-Great Lake [7] = experiment: survival of infected mice, oral in diet (Table II); assay type: in vivo; details: control 3/36
# Excerpt: as §2
# influenza Al-Ann Arbor [8] = experiment: survival of infected mice, oral in diet (Table II); assay type: in vivo; details: control 0/50
# Excerpt: as §2
# influenza A-Texas = experiment: survival of infected mice, oral in diet (Table II); assay type: in vivo; details: control 8/36
# Excerpt: as §2
smiles,measurement,setting,value
"COC(=O)NC(=S)Nc1nncs1 [Preparation 5, [(1,3,4-thiadiazol-2-ylamino)thioxomethyl]carbamic acid, methyl ester]","RA (relative activity index from P, percent of maximum survival index)",[1],5 (80-100% = 5 (very active))
"NC(=Nc1nncs1)SCc1ccccn1 [Example 4, N^1-1,3,4-thiadiazol-2-ylcarbamimidothioic acid, 2-pyridinylmethyl ester, hydrochloride]",IC50,influenza A-NWS,> 50 µg/mL
same,IC50,influenza B-Great Lake [2],> 50 µg/mL
same,"RA (relative activity index from P, percent of maximum survival index)",[1],2.5
"N#CCSC(N)=Nc1nncs1 [Example 5, N^1-1,3,4-thiadiazol-2-ylcarbamimidothioic acid, cyanomethyl ester]","RA (relative activity index from P, percent of maximum survival index)",[1],2.5
"CCCCSC(N)=Nc1nncs1 [Example 3, N^1-1,3,4-thiadiazol-2-ylcarbamimidothioic acid, n-butyl ester]",IC50,influenza A-NWS,21.3 µg/mL
same,IC50,influenza B-Great Lake [2],> 50 µg/mL
same,"RA (relative activity index from P, percent of maximum survival index)",[1],5 (80-100% = 5 (very active))
"CSC(N)=Nc1nncs1 [Example 1, N^1-1,3,4-thiadiazol-2-ylcarbamimidothioic acid, methyl ester]",IC50,Vaccinia,15.8 µg/mL
same,IC50,influenza B-Great Lake [2],16.3 µg/mL
same,antiviral activity shown (Result),HSV I,active
same,IC50,Semliki Forest,43 µg/mL
same,IC50,influenza Al-Ann Arbor [3],0.68 µg/mL
same,"RA (relative activity index from P, percent of maximum survival index)",[1],5 (80-100% = 5 (very active))
same,IC50,Parainfluenza (type 3); BSCl cells,4.5 µg/mL
same,IC50,Parainfluenza (type 3); HELA cells,> 25 µg/mL
same,antiviral activity shown (Result),RSV; drinking water,active
same,conversion in vivo to a salt form of the compound of Example 6,[4],converted to a salt form of the compound of Example 6; also recorded: converted in vivo to a salt form
same,IC50,Herpes I,9.6 µg/mL
CCOC(=O)N=C(Nc1nncs1)SCC [Preparation 8],IC50,influenza A-NWS,> 50 µg/mL
same,"RA (relative activity index from P, percent of maximum survival index)",[1],5 (80-100% = 5 (very active))
"O=C(NC(=S)Nc1nncs1)Oc1ccccc1 [Preparation 3, [(1,3,4-Thiadiazol-2-ylamino)thioxomethyl]carbamic acid, phenyl ester]",IC50,influenza A-NWS,< 1.6 µg/mL
same,"RA (relative activity index from P, percent of maximum survival index)",[1],5 (80-100% = 5 (very active))
"C=COC(=O)NC(=S)Nc1nncs1 [Preparation 6, [(1,3,4-thiadiazol-2-ylamino)thioxomethyl]carbamic acid, vinyl ester]","RA (relative activity index from P, percent of maximum survival index)",[1],4 (60-80% = 4 (good activity))
"CCSC(N)=Nc1nncs1 [Example 2, N^1-1,3,4-thiadiazol-2-ylcarbamimidothioic acid, ethyl ester]",IC50,influenza A-NWS,18.9 µg/mL
same,IC50,influenza B-Great Lake [2],9.5 µg/mL
same,"RA (relative activity index from P, percent of maximum survival index)",[1],5 (80-100% = 5 (very active))
"NC(N)=Nc1nncs1 [Example 8, 1,3,4-Thiadiazole-2-guanidine]",IC50,influenza B-Great Lake [2],0.27 µg/mL
same,IC50,influenza Al-Ann Arbor [3],0.02 µg/mL
"Nc1nncs1 [2-amino-1,3,4-thiadiazole]",antiviral activity,[5],certain antiviral activity
"N#CNc1nncs1 [Example 6, 1,3,4-Thiadiazole-2-cyanamide]",IC50,influenza A-NWS,0.78 µg/mL
same,"IC50, inhibition of plaque formation by 50 percent",influenza B-Great Lake [2],2.25 MCG/ML
same,IC50,influenza Al-Ann Arbor [3],0.85 µg/mL
"CCCCCCOC(=O)NC(=S)Nc1nncs1 [Preparation 4, [(1,3,4-Thiadiazol-2-ylamino)thioxomethyl]carbamic acid, n-hexyl ester]","RA (relative activity index from P, percent of maximum survival index)",[1],5 (80-100% = 5 (very active))
"CCOC(=O)NC(=S)Nc1nncs1 [Preparation 1, [(1,3,4-Thiadiazol-2-ylamino)thioxomethyl]carbamic acid, ethyl ester]",IC50,influenza A-NWS,43 µg/mL
same,IC50,influenza B-Great Lake [2],> 50 µg/mL
same,"RA (relative activity index from P, percent of maximum survival index)",[1],4.5
"CCOC(=O)N=C(Nc1nncs1)SC [Preparation 7, [(Methylthio)(1,3,4-thiadiazol-2-ylamino)methyl]carbamic acid, ethyl ester]",IC50,influenza A-NWS,75.5 µg/mL
same,"RA (relative activity index from P, percent of maximum survival index)",[1],5 (80-100% = 5 (very active))
"N#CNc1nncs1 [Example 7, 1,3,4-Thiadiazole-2-cyanamide Sodium salt]","IC50, inhibition of plaque formation by 50 percent",influenza A-NWS; Sodium salt,0.58 MCG/ML
same,activity against retroviruses,HIV,failed to demonstrate conclusive activity
same,antiviral activity shown (Result),HSV II,active
same,IC50,Vaccinia; Vero,0.29 µg/mL
same,IC50,Vaccinia,< 0.31 µg/mL
same,"IC50, inhibition of plaque formation by 50 percent",influenza B-Great Lake [2]; Sodium salt,1.00 MCG/ML
same,antiviral activity shown (Result),HSV I,active
same,IC50,Semliki Forest,< 0.23 µg/mL
same,activity against retroviruses,Friend Leukemia,failed to demonstrate conclusive activity
same,in vitro activity against Vesicular Stomatitus Virus,[6],does not
same,"IC50, inhibition of plaque formation by 50 percent",influenza Al-Ann Arbor [3]; Sodium salt,0.82 MCG/ML
same,IC50,Herpes II,0.19 µg/mL
same,IC50,Parainfluenza (type 3); BSCl cells,0.14 µg/mL
same,IC50,Parainfluenza (type 3); HELA cells,0.72 µg/mL
same,antiviral activity shown (Result),RSV; food,active
same,IC50,Herpes I,2.95 µg/mL
"NC(=S)Nc1nncs1 [Preparation 2, 1,3,4-Thiadiazol-2-ylthiourea]",number of animals surviving over number tested (S/N),influenza B-Maryland; 60 mg/kg/day,19/20
same,number of animals surviving over number tested (S/N),influenza B-Maryland; 120 mg/kg/day,20/20
same,number of animals surviving over number tested (S/N),influenza B-Taiwan; 15 mg/kg/day,4/18
same,number of animals surviving over number tested (S/N),influenza B-Taiwan; 30 mg/kg/day,15/18
same,number of animals surviving over number tested (S/N),influenza B-Taiwan; 60 mg/kg/day,18/18
same,number of animals surviving over number tested (S/N),influenza B-Taiwan; 120 mg/kg/day,18/18
same,number of animals surviving over number tested (S/N),influenza B-Hong Kong; 60 mg/kg/day,10/20
same,number of animals surviving over number tested (S/N),influenza B-Hong Kong; 120 mg/kg/day,16/20
same,number of animals surviving over number tested (S/N),influenza A-Brazil; 15 mg/kg/day,5/15
same,number of animals surviving over number tested (S/N),influenza A-Brazil; 30 mg/kg/day,5/16
same,number of animals surviving over number tested (S/N),influenza A-Brazil; 60 mg/kg/day,12/18
same,number of animals surviving over number tested (S/N),influenza A-Brazil; 120 mg/kg/day,14/18
same,number of animals surviving over number tested (S/N),influenza B-Great Lake [7]; 15 mg/kg/day,11/18
same,number of animals surviving over number tested (S/N),influenza B-Great Lake [7]; 30 mg/kg/day,16/18
same,number of animals surviving over number tested (S/N),influenza B-Great Lake [7]; 60 mg/kg/day,17/18
same,number of animals surviving over number tested (S/N),influenza B-Great Lake [7]; 120 mg/kg/day,18/18
same,number of animals surviving over number tested (S/N),influenza Al-Ann Arbor [8]; 60 mg/kg/day,20/20
same,number of animals surviving over number tested (S/N),influenza Al-Ann Arbor [8]; 120 mg/kg/day,20/20
same,number of animals surviving over number tested (S/N),influenza A-Texas; 15 mg/kg/day,5/18
same,number of animals surviving over number tested (S/N),influenza A-Texas; 30 mg/kg/day,8/18
same,number of animals surviving over number tested (S/N),influenza A-Texas; 60 mg/kg/day,12/18
same,number of animals surviving over number tested (S/N),influenza A-Texas; 120 mg/kg/day,16/18
same,IC50,influenza A-NWS,3.6 µg/mL
same,IC50,influenza B-Great Lake [2],7 µg/mL
same,in vitro activity against Vesicular Stomatitus Virus,[6],displays in vitro activity
same,IC50,influenza Al-Ann Arbor [3],> 50 µg/mL
